Laboratory results: patent US7211572B2 (Japan Tobacco Inc., priority 2003, dated 2007)
Counter-ions that a name gives are not always drawn.

What follows are compounds tested against T1, HIV integrase (Human immunodeficiency virus type 1 group M subtype B, UniProt P12497, F1332H) (assay: Determination of enzyme (HIV integrase) inhibitory activity). Details: recombinant HIV integrase (F185H), strand transfer ELISA, absorbance at 450 nm.
T1 construct: HIV integrase full length gene; made in house; host or cells: Escherichia coli BL21(DE3), plasmid pET21a-INH
Assay type: biochemical
From the text: The following explains evaluation methods of the HIV integrase inhibitory activity of the compound of the present invention.
(i) Construction of Recombinant Integrase Gene Expression System
The 185th phenylalanine of HIV integrase full length gene (J. Virol., 67, 425–437 (1993)) was substituted by histidine and inserted into the restriction enzyme NdeI and XhoI sites of plasmid pET21a(+) (Novagen), whereby an integrase expression vector pET21a-INH was constructed.
(ii) Production and Purification of Integrase Protein
Escherichia coli recombinant BL21(DE3) transformed with plasmid pET21a-INH obtained in (i) was shake cultured at 37° C. in a liquid medium containing ampicillin. When the culture reached the logarithmic growth phase, isopropyl-β-D-thiogalactopyranoside was added to promote expression of integrase gene. The culture was continued for 3 hr to promote accumulation of the integrase protein. The recombinant E. coli was collected in pellets by centrifugal separation and preserved at −80° C.
The E. coli was suspended in Lysis buffer (20 mM HEPES (pH 7.5), 5 mM DTT, 10 mM CHAPS, 10% glycerol) containing 1M sodium chloride and subjected to repeat pressurization and depressurization for rupture, and centrifugal separation at 4° C., 40,000×g, 60 min to recover a water-soluble fraction (supernatant). This was diluted 10-fold with Lysis buffer free of sodium chloride, mixed with SP-Sepharose (Pharmacia Corporation) and stirred at 4° C. for 30 min to allow adsorption of integrase protein to the resin. The resin was washed with Lysis buffer containing 100 mM sodium chloride and the integrase protein was eluted with Lysis buffer containing 1M sodium chloride.
The eluted integrase protein solution was applied to a Superdex 75 (Pharmacia Corporation) column for gel filtration. The protein was eluted with Lysis buffer containing 1M sodium chloride.
The obtained fractions of the integrase protein were collected and preserved at −80° C.
(iii) Preparation of DNA Solution
The following DNA synthesized by Greiner was dissolved in TE buffer (10 mM Tris-hydrochloric acid (pH 8.0), 1 mM EDTA) and mixed with donor DNA, target DNA, and each complementary strand (+ and − strands) to 1 μM. The mixture was heated at 95° C. for 5 min, 80° C. for 10 min, 70° C. for 10 min, 60° C. for 10 min, 50° C. for 10 min and 40° C. for 10 min and preserved at 25° C. to give a double stranded DNA, which was used for the test.
Donor DNA (− strand having biotin attached to the 5′ terminal)
(iv) Determination of Enzyme (HIV Integrase) Inhibitory Activity
The donor DNA was diluted with TE buffer to 10 nM, of which 50 μl was added to each well of streptavidin-coated microtiter plate (Roche) and allowed to adsorb at 37° C. for 60 min. The DNA was washed with phosphate buffer (Dulbecco PBS, Sanko Junyaku Co., Ltd.) containing 0.1% Tween 20 and phosphate buffer. Then, a reaction mixture (70 μl) having the following composition, a test substance (10 μl) diluted with the reaction mixture and 100 μg/ml integrase protein (10 μl) were added to each well and reacted at 37° C. for 60 min.
Composition of the reaction mixture: 30 mM MOPS (3-morpholinopropanesulfonic acid), 5 mM magnesium chloride, 3 mM DTT (dithiothreitol), 0.1 mg/ml BSA (bovine serum albumin), 5% glycerol, 10% DMSO (dimethyl sulfoxide), 0.01% Tween 20.
Then, 50 nM target DNA (10 μl) was added, reacted at 37° C. for 10 min and washed with phosphate buffer containing 0.1% Tween 20 to stop the reaction.
Then, 100 mU/ml peroxidase labeled anti-digoxigenin antibody solution (Roche, 100 μl) was added, and the mixture was reacted at 30° C. for 60 min, followed by washing with phosphate buffer containing 0.1% Tween 20.
A peroxidase color solution (Bio Rad, 100 μl) was added and allowed to react at room temperature for 4 min. The color reaction was stopped by adding 1N sulfuric acid (100 μl). The absorbance at 450 nm was measured. […]

SMILES	IC50
CC(C)c1cc(=O)c(O)c2n1CCN(Cc1ccc(Cl)c(Cl)c1)C2=O [Example 46, 2-(3,4-dichlorobenzyl)-9-hydroxy-6-isopropyl-3,4-dihydro-2H-pyrido[1,2-a]pyrazine-1,8-dione]	10 to 100 nM
CC(C)C(=O)c1cc(=O)c(O)c2n1CCN(Cc1ccc(Cl)c(Cl)c1)C2=O [Example 47, 2-(3,4-dichlorobenzyl)-9-hydroxy-6-isobutyryl-3,4-dihydro-2H-pyrido[1,2-a]pyrazine-1,8-dione]	< 10 nM
O=Cc1cc(=O)c(O)c2n1CCN(Cc1ccc(Cl)c(Cl)c1)C2=O [Example 48, 2-(3,4-dichlorobenzyl)-9-hydroxy-1,8-dioxo-1,3,4,8-tetrahydro-2H-pyrido[1,2-a]pyrazine-6-carbaldehyde]	10 to 100 nM
O=C1c2c(O)c(=O)cc(-c3ccccc3)n2CCN1Cc1ccc(Cl)c(Cl)c1 [Example 49, 2-(3,4-dichlorobenzyl)-9-hydroxy-6-phenyl-3,4-dihydro-2H-pyrido[1,2-a]pyrazine-1,8-dione]	10 to 100 nM
O=C1c2c(O)c(=O)ccn2CCN1CCCc1ccccc1 [Example 50, 9-hydroxy-2-(3-phenylpropyl)-3,4-dihydro-2H-pyrido[1,2-a]pyrazine-1,8-dione]	10 to 100 nM
O=C1c2c(O)c(=O)ccn2CCN1Cc1cccc(Cl)c1F [Example 51, 2-(3-chloro-2-fluorobenzyl)-9-hydroxy-3,4-dihydro-2H-pyrido[1,2-a]pyrazine-1,8-dione]	10 to 100 nM
CC(C)C(O)c1cc(=O)c(O)c2n1CCN(Cc1ccc(Cl)c(Cl)c1)C2=O (centres unmarked) [Example 53, 2-(3,4-dichlorobenzyl)-9-hydroxy-6-(1-hydroxy-2-methylpropyl)-3,4-dihydro-2H-pyrido[1,2-a]pyrazine-1,8-dione]	10 to 100 nM
CC(C)Cc1cc(=O)c(O)c2n1CCN(Cc1ccc(Cl)c(Cl)c1)C2=O [Example 54, 2-(3,4-dichlorobenzyl)-9-hydroxy-6-isobutyl-3,4-dihydro-2H-pyrido[1,2-a]pyrazine-1,8-dione]	10 to 100 nM
NC(=O)c1cc(=O)c(O)c2n1CCN(Cc1ccc(Cl)c(Cl)c1)C2=O [Example 55, 2-(3,4-dichlorobenzyl)-9-hydroxy-1,8-dioxo-1,3,4,8-tetrahydro-2H-pyrido[1,2-a]pyrazine-6-carboxamide]	10 to 100 nM
CNC(=O)c1cc(=O)c(O)c2n1CCN(Cc1ccc(Cl)c(Cl)c1)C2=O [Example 56, N-methyl-2-(3,4-dichlorobenzyl)-9-hydroxy-1,8-dioxo-1,3,4,8-tetrahydro-2H-pyrido[1,2-a]pyrazine-6-carboxamide]	10 to 100 nM
O=C1c2c(O)c(=O)ccn2CCN1Cc1ccc(Cl)c(F)c1 [Example 57, 2-(4-chloro-3-fluorobenzyl)-9-hydroxy-3,4-dihydro-2H-pyrido[1,2-a]pyrazine-1,8-dione]	10 to 100 nM
O=C(c1ccccc1)c1cc(=O)c(O)c2n1CCN(Cc1ccc(Cl)c(Cl)c1)C2=O [Example 58, 6-benzoyl-2-(3,4-dichlorobenzyl)-9-hydroxy-3,4-dihydro-2H-pyrido[1,2-a]pyrazine-1,8-dione]	< 10 nM
CCC(=O)c1cc(=O)c(O)c2n1CCN(Cc1ccc(Cl)c(Cl)c1)C2=O [Example 59, 2-(3,4-dichlorobenzyl)-9-hydroxy-6-propionyl-3,4-dihydro-2H-pyrido[1,2-a]pyrazine-1,8-dione]	< 10 nM
Cc1cc(=O)c(O)c2n1CCN(Cc1ccc(Cl)c(Cl)c1)C2=O [Example 60, 2-(3,4-dichlorobenzyl)-9-hydroxy-6-methyl-3,4-dihydro-2H-pyrido[1,2-a]pyrazine-1,8-dione]	10 to 100 nM
CCN(CC)C(=O)c1cc(=O)c(O)c2n1CCN(Cc1ccc(Cl)c(Cl)c1)C2=O [Example 61, N,N-diethyl-2-(3,4-dichlorobenzyl)-9-hydroxy-1,8-dioxo-1,3,4,8-tetrahydro-2H-pyrido[1,2-a]pyrazine-6-carboxamide]	10 to 100 nM
CC(C)N(C)C(=O)c1cc(=O)c(O)c2n1CCN(Cc1ccc(Cl)c(Cl)c1)C2=O [Example 62, N-isopropyl-N-methyl-2-(3,4-dichlorobenzyl)-9-hydroxy-1,8-dioxo-1,3,4,8-tetrahydro-2H-pyrido[1,2-a]pyrazine-6-carboxamide]	10 to 100 nM
CCN(C)C(=O)c1cc(=O)c(O)c2n1CCN(Cc1ccc(Cl)c(Cl)c1)C2=O [Example 63, N-ethyl-N-methyl-2-(3,4-dichlorobenzyl)-9-hydroxy-1,8-dioxo-1,3,4,8-tetrahydro-2H-pyrido[1,2-a]pyrazine-6-carboxamide]	< 10 nM
O=C1c2c(O)c(=O)ccn2CCN1Cc1ccc(F)c(Cl)c1 [Example 64, 2-(3-chloro-4-fluorobenzyl)-9-hydroxy-3,4-dihydro-2H-pyrido[1,2-a]pyrazine-1,8-dione]	10 to 100 nM
O=C1c2c(O)c(=O)ccn2CCN1Cc1ccccc1Cl [Example 65, 2-(2-chlorobenzyl)-9-hydroxy-3,4-dihydro-2H-pyrido[1,2-a]pyrazine-1,8-dione]	100 to 1000 nM
O=C1c2c(O)c(=O)ccn2CCN1Cc1cc(Cl)cc(Cl)c1 [Example 66, 2-(3,5-dichlorobenzyl)-9-hydroxy-3,4-dihydro-2H-pyrido[1,2-a]pyrazine-1,8-dione]	10 to 100 nM
CC(C)(C)c1cc(=O)c(O)c2n1CCN(Cc1ccc(Cl)c(Cl)c1)C2=O [Example 67, 6-tert-butyl-2-(3,4-dichlorobenzyl)-9-hydroxy-3,4-dihydro-2H-pyrido[1,2-a]pyrazine-1,8-dione]	10 to 100 nM
CC(C)(C)C(O)c1cc(=O)c(O)c2n1CCN(Cc1ccc(Cl)c(Cl)c1)C2=O (centres unmarked) [Example 68, 2-(3,4-dichlorobenzyl)-9-hydroxy-6-(1-hydroxy-2,2-dimethylpropyl)-3,4-dihydro-2H-pyrido[1,2-a]pyrazine-1,8-dione]	10 to 100 nM
O=c1ccn2ccn(CCCc3ccc(Cl)cc3)c(=O)c2c1O [Example 70, 2-[3-(4-chlorophenyl)propyl]-9-hydroxy-2H-pyrido[1,2-a]pyrazine-1,8-dione]	10 to 100 nM
O=c1ccn2ccn(CCCc3ccccc3Cl)c(=O)c2c1O [Example 71, 2-[3-(2-chlorophenyl)propyl]-9-hydroxy-2H-pyrido[1,2-a]pyrazine-1,8-dione]	10 to 100 nM
Cc1cn(Cc2ccc(Cl)c(Cl)c2)c(=O)c2c(O)c(=O)ccn12 [Example 72, 2-(3,4-dichlorobenzyl)-9-hydroxy-4-methyl-2H-pyrido[1,2-a]pyrazine-1,8-dione hydrochloride]	< 10 nM
COc1ccc(CN2CCn3ccc(=O)c(O)c3C2=O)cc1Cl [Example 73, 2-(3-chloro-4-methoxybenzyl)-9-hydroxy-3,4-dihydro-2H-pyrido[1,2-a]pyrazine-1,8-dione]	10 to 100 nM
N#CCc1cc(=O)c(O)c2n1CCN(Cc1ccc(Cl)c(Cl)c1)C2=O [Example 75, [2-(3,4-dichlorobenzyl)-9-hydroxy-1,8-dioxo-1,3,4,8-tetrahydro-2H-pyrido[1,2-a]pyrazin-6-yl]acetonitrile]	10 to 100 nM
O=c1ccn2ccn(CCCc3cccc(Cl)c3)c(=O)c2c1O [Example 76, 2-[3-(3-chlorophenyl)propyl]-9-hydroxy-2H-pyrido[1,2-a]pyrazine-1,8-dione]	10 to 100 nM
CC(C)c1cn(Cc2ccc(Cl)c(Cl)c2)c(=O)c2c(O)c(=O)ccn12 [Example 78, 2-(3,4-dichlorobenzyl)-9-hydroxy-4-isopropyl-2H-pyrido[1,2-a]pyrazine-1,8-dione]	< 10 nM
